Reference: patent publication US20160113921A1, “COMBINATION THERAPY COMPRISING OXAZOLIDINONE-QUINOLONES FOR USE IN TREATING BACTERIAL INFECTIONS” (MORPHOCHEM AKTIENGESELLSCHAFT FÜR KOMBINATORISCHE CHEMIE, priority 2013, published 2016)
In brackets after ≈: the same amount, converted by molar mass. Several values for one entry are separate records, joined by “and”; a condition that tells them apart may be missing. Equal entries are not always repeated.

Key:
Type in all cases: cell-based
[1] = system: P. aeruginosa NRZ-00425 (VIM-2 β-lactamase); assay: microbe, parasite or virus in culture; conditions: Pseudomonas aeruginosa, checkerboard, read-out: MIC (agent alone)
Description: (§1) The checkerboard consists of columns in which each well contains the same amount of antibacterial A being over i dilutions along the x-axis, and in rows in which each well contains the same amount of antibacterial B over j dilutions on the y-axis, i.e. serial dilutions of antibacterials A and B, respectively, are titrated in a rectangular fashion.
(§2) The fractional inhibitory concentration (FIC) is a mathematical expression of the effect of the combination of two antibacterial agents A and B. The FICs were calculated as the MIC of antibacterial A and antibacterial B in combination divided by the MIC of antibacterial A or antibacterial B alone.
(§3) The FICs and FIC index, respectively, are calculated according to the following equations:
(§4) FIC(A)=MIC(A in the presence of B)/MIC(A alone)
(§5) FIC(B)=MIC(B in the presence of A)/MIC(B alone)
(§6) The checkerboard titrations were performed three times.

E. coli NRZ-00401 = assay: Time-kill curves; conditions: E. coli NRZ00401; for growth- and kill rates k ('+' = growth, unmarked = kill rate): first four hours
E. coli GNS-2601 = assay: Time-kill curves; conditions: E. coli GNS2601; for growth- and kill rates k ('+' = growth, unmarked = kill rate): first four hours
E. faecalis V583 (VanB) = assay: MIC, broth microdilution (CLSI), CAMHB; conditions: Enterococcus faecalis; monosubstance; Ef V583; read-out: MIC
Description: (§7) MIC-testing was done immediately after preparation of the dilutions. All tests were done in duplicate and repeated once on a separate occasion.
(§8) 1 mL of the bacterial suspension was transferred into a tube containing 10 mL CAMHB and was vortexed thoroughly. (S. pneumoniae 1 mL in 10 mL CAMHB+5% lysed horse blood). Columns 1-15 of the 96-well plate were inoculated with 5 μL of this suspension (1-15=antibacterial solution, 16=sterile medium without test item).
(§9) Turbidity was read visually with a mirror.

S. aureus ATCC 29213 = assay: MIC, broth microdilution (CLSI), CAMHB; conditions: Staphylococcus aureus; monosubstance; Sa ATCC29213; read-out: MIC
Description: as §7, §8, §9

[2] = system: S. aureus ATCC 33593 (MRSA); assay: MIC, broth microdilution (CLSI), CAMHB; conditions: Staphylococcus aureus; monosubstance; Sa ATCC33593; read-out: MIC
Description: as §7, §8, §9

E. coli ATCC 25922 [3] = assay: MIC, broth microdilution (CLSI), CAMHB; conditions: Escherichia coli; monosubstance; Ec ATCC25922; read-out: MIC
Description: as §7, §8, §9

[4] = system: S. pneumoniae BAY 19397 (penicillin-, macrolide-, quinolone-resistant); assay: MIC, broth microdilution (CLSI), CAMHB; conditions: monosubstance; Spn 19397; listed as MCB
Description: as §7, §8, §9

E. faecalis ATCC 29212 = assay: MIC, broth microdilution (CLSI), CAMHB; conditions: Enterococcus faecalis; monosubstance; Ef ATCC29212; read-out: MIC
Description: as §7, §8, §9

S. pneumoniae ATCC 33400 = assay: MIC, broth microdilution (CLSI), CAMHB; conditions: Streptococcus pneumoniae; monosubstance; Spn ATCC33400; read-out: MIC
Description: as §7, §8, §9

[5] = system: S. aureus DSM 11823, clone 16 (MSSA, quinolone-resistant); assay: microbe, parasite or virus in culture; conditions: Staphylococcus aureus
Description: as §7, §8, §9

E. coli ATCC 25922 [6] = assay: Time-kill curves; conditions: E. coli ATCC25922; for growth- and kill rates k ('+' = growth, unmarked = kill rate): first four hours
E. coli NRZ-00302 = assay: Time-kill curves; conditions: E. coli NRZ00302; for growth- and kill rates k ('+' = growth, unmarked = kill rate): first four hours
E. cloacae ATCC 13047 [7] = assay: Checkerboard titration of Compound 1 and colistin; conditions: Enterobacter cloacae, ATCC13047, checkerboard, read-out: MIC (agent alone)
Description: as §1, §2, §3, §4, §5, §6

E. coli ATCC 25922 [8] = assay: Checkerboard titration of Compound 1 and colistin; conditions: Escherichia coli, ATCC25922, read-out: MIC (agent alone)
Description: as §1, §2, §3, §4, §5, §6

[9] = system: six selected indicator strains; assay: Checkerboard titration, statements on the six indicator strains; conditions: read-out: MIC of Compound 1 alone, checkerboard; strains as worded in the text
Description: as §1, §2, §6

K. pneumoniae ATCC 13883 = assay: MIC, broth microdilution (CLSI), CAMHB; conditions: Klebsiella pneumoniae; monosubstance; Kp ATCC13883; read-out: MIC
Description: as §7, §8, §9

[10] = system: E. faecium UW 3695 (linezolid and quinolone-resistant); assay: MIC, broth microdilution (CLSI), CAMHB; conditions: Enterococcus faecium; monosubstance; Efc UW3695; read-out: MIC
Description: as §7, §8, §9

[11] = system: S. aureus Visa Mu 50 (MRSA, vancomycin intermediate susceptible); assay: MIC, broth microdilution (CLSI), CAMHB; conditions: Staphylococcus aureus; monosubstance; Sa VisaMu50; read-out: MIC
Description: as §7, §8, §9

[12] = system: S. aureus NRS-119 (MRSA, linezolid- and quinolone-resistant); assay: MIC, broth microdilution (CLSI), CAMHB; conditions: Staphylococcus aureus; monosubstance; Sa NRS119; read-out: MIC
Description: as §7, §8, §9

E. cloacae ATCC 13047 [13] = assay: MIC, broth microdilution (CLSI), CAMHB; conditions: Enterobacter cloacae; monosubstance; Ecl ATCC13047; read-out: MIC
Description: as §7, §8, §9

E. faecium DSMZ 2146 = assay: MIC, broth microdilution (CLSI), CAMHB; conditions: Enterococcus faecium; monosubstance; Efc DSMZ2146; read-out: MIC
Description: as §7, §8, §9

[14] = system: E. coli NRZ-00401 (metallo β-lactamase VIM-1); assay: MIC, broth microdilution (CLSI), CAMHB; conditions: Escherichia coli; monosubstance; Ec NRZ00401; read-out: MIC
Description: as §7, §8, §9

[15] = system: Gram-positive strains tested; assay: MIC testing, statements on the Gram-positive strain panel; conditions: all Gram-positive strains tested; read-out: MIC (inhibitory concentration)
Description: as §7

[16] = system: E. coli GNS-2601 (ESBL CTX-M-15); assay: MIC, broth microdilution (CLSI), CAMHB; conditions: Escherichia coli; monosubstance; Ec GNS2601; read-out: MIC
Description: as §7, §8, §9

[17] = system: E. coli NRZ-00302 (metallo β-lactamase NDM-1); assay: MIC, broth microdilution (CLSI), CAMHB; conditions: Escherichia coli; monosubstance; Ec NRZ00302; read-out: MIC
Description: as §7, §8, §9

[18] = system: E. coli ATCC 25922, NRZ-00401, NRZ-00302 and GNS-2601; assay: Time-kill curves, statements on the four E. coli strains

In the case of `CC(=O)NC[C@H]1CN(c2ccc(OCC3(O)CCN(c4cc5c(cc4F)c(=O)c(C(=O)O)cn5C4CC4)CC3)c(F)c2)C(=O)O1` [Compound 1, 7-(4-{4-[(5S)-5-(acetylamino-methyl)-2-oxo-oxazolidin-3-yl]-2-fluoro-phenoxymethyl}-4-hydroxy-piperidin-1-yl)-1-cyclopropyl-6-fluoro-4-oxo-1,4-dihydro-quinoline-3-carboxylic acid], the MIC [1] is reported as 128 to 256 µg/mL, the “Viable counts at 8 h of exposure” value (E. coli NRZ-00401; single agent at 1x its MIC) is reported as 6.32 log10 CFU/mL and the “Viable counts at 8 h of exposure” value (E. coli GNS-2601; single agent at 1x its MIC, listed as MCB) is reported as 8.34 log10 CFU/mL and 7.34 log10 CFU/mL. The “Viable counts at 8 h of exposure” value (E. coli GNS-2601; single agent at 2x its MIC) was 6.29 log10 CFU/mL, the MIC (E. faecalis V583 (VanB)) was 0.03 µg/mL (≈ 0.0479 µM) and the MIC (S. aureus ATCC 29213) was 0.25 µg/mL (≈ 0.399 µM). The MIC [2] was 0.03 µg/mL (≈ 0.0479 µM), the MIC (E. coli ATCC 25922 [3]) was 16 µg/mL (≈ 25.5 µM) and the MIC [4] was 0.0004 µg/mL (≈ 0.000638 µM). The MIC (E. faecalis ATCC 29212) was 0.03 µg/mL (≈ 0.0479 µM), the MIC (S. pneumoniae ATCC 33400) was 0.0075 µg/mL (≈ 0.012 µM) and the MIC [5] was 0.03 µg/mL (≈ 0.0479 µM). The “Viable counts at 8 h of exposure” value (E. coli ATCC 25922 [6]; single agent at 1x its MIC) was 4.69 log10 CFU/mL, the “Viable counts at 8 h of exposure” value (E. coli ATCC 25922 [6]; single agent at 2x its MIC, listed as MCB) was 2.61 log10 CFU/mL and 2.62 log10 CFU/mL and the “Viable counts at 8 h of exposure” value (E. coli NRZ-00302; single agent at 1x its MIC) was 8.28 log10 CFU/mL. For the same compound, the “Viable counts at 8 h of exposure” value (E. coli NRZ-00302; single agent at 2x its MIC) was 5.69 log10 CFU/mL.
In the case of `CC(=O)NC[C@H]1CN(c2ccc(OCC3(O)CCN(c4cc5c(cc4F)c(=O)c(C(=O)O)cn5C4CC4)CC3)c(F)c2)C(=O)O1` [Compound 1, 7-(4-{4-[(5S)-5-(acetylamino-methyl)-2-oxo-oxazolidin-3-yl]-2-fluoro-phenoxymethyl}-4-hydroxy-piperidin-1-yl)-1-cyclopropyl-6-fluoro-4-oxo-1,4-dihydro-quinoline-3-carboxylic], the MIC (E. cloacae ATCC 13047 [7]) is reported as over 256 µg/mL, the MIC (E. coli ATCC 25922 [8]) is reported as 8 to 16 µg/mL and the MIC [9] is reported as over 256 µg/mL. The MIC (K. pneumoniae ATCC 13883) was 128 µg/mL (≈ 204 µM), the MIC [10] was 0.06 µg/mL (≈ 0.0958 µM) and the MIC [11] was 0.06 µg/mL (≈ 0.0958 µM). The MIC [12] was 1 µg/mL (≈ 1.6 µM), the MIC (E. cloacae ATCC 13047 [13]) was 128 µg/mL (≈ 204 µM) and the MIC (E. faecium DSMZ 2146) was 0.06 µg/mL (≈ 0.0958 µM). The MIC [14] was 16 µg/mL (≈ 25.5 µM) and the MIC [15] was under 0.25 µg/mL.
`C[C@@H]1O[C@@H]1P(=O)(O)O` [fosfomycin] was tested, and the “growth- and kill rates k ('+' = growth, unmarked = kill rate)” value (“growth- and kill rates k” below) (E. coli NRZ-00401; single agent at 1x its MIC) was “+0.40 h^−1”, the “growth- and kill rates k” value (E. coli NRZ-00401; single agent at 2x its MIC) was “+0.32 h^−1” and the “Viable counts at 8 h of exposure” value (E. coli NRZ-00401; single agent at 1x its MIC) was 7.95 log10 CFU/mL. The “Viable counts at 8 h of exposure” value (E. coli NRZ-00401; single agent at 2x its MIC) was 6.65 log10 CFU/mL, the “growth- and kill rates k” value (E. coli GNS-2601; single agent at 1x its MIC) was 1.21 h⁻¹ and the “growth- and kill rates k” value (E. coli GNS-2601; single agent at 2x its MIC) was 1.85 h⁻¹. The “Viable counts at 8 h of exposure” value (E. coli GNS-2601; single agent at 1x its MIC) was 5.08 log10 CFU/mL, the “Viable counts at 8 h of exposure” value (E. coli GNS-2601; single agent at 2x its MIC) was 3.45 log10 CFU/mL and the MIC [16] was 64 µg/mL (≈ 464 µM). The MIC (E. coli ATCC 25922 [3]) was 2 µg/mL (≈ 14.5 µM), the MIC [17] was 64 µg/mL (≈ 464 µM) and the MIC [14] was 2 µg/mL (≈ 14.5 µM). The “type of activity in time-kill” value ([18]; strains ATCC 25922, NRZ-00401) was “bacteriostatically”, the “type of activity in time-kill” value ([18]; strains NRZ-00302 and GNS-2601) was “bactericidal” and the “growth- and kill rates k” value (E. coli ATCC 25922 [6]; single agent at 1x its MIC) was “+0.68 h^−1”. For the same compound, the “growth- and kill rates k” value (E. coli ATCC 25922 [6]; single agent at 2x its MIC) was “+0.72 h^−1”, the “Viable counts at 8 h of exposure” value (E. coli ATCC 25922 [6]; single agent at 1x its MIC) was 8.95 log10 CFU/mL and the “Viable counts at 8 h of exposure” value (E. coli ATCC 25922 [6]; single agent at 2x its MIC) was 8.59 log10 CFU/mL. The “growth- and kill rates k” value (E. coli NRZ-00302; single agent at 1x its MIC) was 1.67 h⁻¹, the “growth- and kill rates k” value (E. coli NRZ-00302; single agent at 2x its MIC) was 2.09 h⁻¹ and the “Viable counts at 8 h of exposure” value (E. coli NRZ-00302; single agent at 1x its MIC) was 2.78 log10 CFU/mL. For the same compound, the “Viable counts at 8 h of exposure” value (E. coli NRZ-00302; single agent at 2x its MIC) was 1.30 log10 CFU/mL.
